Biological target: T1, N4CMT79–324 (Adineta vaga, UniProt A0AAB0B2A1)
T1 sequence (A0AAB0B2A1 2-247): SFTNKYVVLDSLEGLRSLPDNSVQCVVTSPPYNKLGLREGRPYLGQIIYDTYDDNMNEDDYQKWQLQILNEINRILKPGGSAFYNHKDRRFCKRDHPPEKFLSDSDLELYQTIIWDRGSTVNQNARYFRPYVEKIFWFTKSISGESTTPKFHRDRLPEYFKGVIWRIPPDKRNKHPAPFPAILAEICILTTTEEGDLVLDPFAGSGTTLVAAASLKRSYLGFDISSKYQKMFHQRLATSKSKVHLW
Experiment: X-ray crystal structure, […] A, space group C222_[…]
Details: SAM-binding site; 600 uM sinefungin preincubated, no DNA

`Nc1ncnc2c1ncn2[C@@H]1O[C@H](C[C@@H](N)CC[C@H](N)C(=O)O)[C@@H](O)[C@H]1O` [sinefungin] was tested, and the “X-ray crystal structure, 1.49 A, space group C222_1” value was “sinefungin binds in the SAM-binding site, and its adenosyl moiety is solvent-exposed on the surface”.

— article PMC10406627 (The Journal of Biological Chemistry, 2023)
